Experimental data taken from US6911470B1, “Polyoxometalate compounds as antiviral agents” (priority 1988, dated 2005).

Key:
[1] = tested on: Friend retrovirus, strain FV-PLS; experiment: Splenomegaly model in BALB/c mice infected with Friend virus; conditions: for % Effectiveness / Mean Spleen wt. (mg) ± SD: sacrifice day 16
Method: Tests were conducted in whole infected mice using one of the compounds to the present invention. The methodology of this test is the same as was used in Ruprecht et al, Nature 323, 467-469, except that Friend virus was used instead of Rauscher virus.
Comparison of Toxicity of Polyoxometalate Compounds Mice. Female BALB/c mice (3 to 4 weeks old), obtained from Charles River Laboratories (Raleigh, N.C.), were acclimatized in the animal facility for two weeks. They-were then inoculated (200 μl) into the peritoneal cavity with Friend retrovirus, strain FV-PLS. A virus inoculum [about 100 focus forming units (FFU)/mouse] was selected which caused a splenomegaly rate of 100% on day 16 after virus inoculation in untreated animals. The virus titer of the inoculum was determined by a UV/XC assay.
In vivo antiviral experiments. Mice were inoculated intraperitoneally with virus at noon and then randomized into ten animals per treatment group. Five hours after virus inoculation, the mice were treated intraperitoneally with the compounds. Treatment was continued daily for 6 or 10 days. On day 16 after virus inoculation, the animals were sacrificed by carbon dioxide inhalation and their spleens removed under aseptic conditions and weighed.

SIV = experiment: Activity against SIV; type: cell-based, simian immunodeficiency virus; conditions: Table 2
[2] = background statement; AZT in a clinical setting; cited from earlier work
[3] = Comparison of toxicity of polyoxometalate compounds in mice (mortality, haematology); type: in vivo; design: MCV (mean corpuscular volume): unit not given here; conditions: BID × 6, 60 mkd i.p.
Description: Comparison of Toxicity of Polyoxometalate Compounds Mice.
In vivo antiviral experiments. […] Treatment was continued daily for 6 or 10 days.

Row | Compound | % Mortality ([1]; 30 mkd IP QD × 10) [%] | % Effectiveness ([1]; 30 mkd IP QD × 10) [%] | Mean Spleen wt. (mg) ± SD ([1]; 30 mkd IP QD × 10) | % Mortality ([1]; 60 mkd IP QD × 10) [%] | % Effectiveness ([1]; 60 mkd IP QD × 10) [%] | Mean Spleen wt. (mg) ± SD ([1]; 60 mkd IP QD × 10) [mg] | EC50 (SIV) [nM] | adverse effect [2] | Hct (hematocrit) ([3]; bled on day 17) [%] | Hgb (hemaglobin) ([3]; bled on day 17) [g/dL] | MCH ([3]; bled on day 17) [pg] | MCHC (mean corpuscular hemoglobin concentration) ([3]; bled on day 17) [g/dL] | MCV (mean corpuscular volume) ([3]; bled on day 17) | PLT (platelates) (×1000) ([3]; bled on day 17) | RBC (×1000000) ([3]; bled on day 17) | RDW (width of red cells) ([3]; bled on day 17) [%] | WBC (×1000) ([3]; bled on day 17) | Mortality ([3]; dead/total)
1 | Cc1cn([C@H]2C[C@H](N=[N+]=[N-])[C@@H](CO)O2)c(=O)[nH]c1=O [Formula 22, 3′-azido-3′-deoxythymidine, reference compound] | 0 | 38.4 | 1,249 ± 1,152 mg | 0 | 51.3 | 988 ± 836 | 2.88 | reversible bone marrow toxicity | – | – | – | – | – | – | – | – | – | –
2 | (ArgH^+)m(H^+)4-mST, where m=1-4 [(ARGH^+)nH^+(4−n)ST] | – | – | – | – | – | – | – | – | 18.16 ± 6.02 | 7.08 ± 2.51 | 17.8 ± 1.6 | 38.62 ± 3.49 | 46.08 ± 0.45 | 325 ×1000 | 3.95 ± 1.31 ×1000000 | 36.68 ± 1.31 | 6.28 ± 2.19 ×1000 | 0/5
